In the test the test system is adult beagle dogs. Put plainly: Metformin-induced retrograde giant contractions (RGCs) and vomiting in beagle dogs, with or without intravenous ondansetron. It is filed as in vivo, dog. The method, then:
Contractions of the smooth muscle of the gastrointestinal tracts of the dogs were monitored with strain gauge force transducers to permit detection of retrograde giant contractions (RGCs). The times at which either RGCs or vomiting occurred were recorded. Vomiting is always preceded by RGCs, while RGCs may also occur without vomiting and are generally thought to be an indication of nausea.

Structures are written as SMILES.

Consider `Cc1nccn1CC1CCc2c(c3ccccc3n2C)C1=O` (stereo not shown) [Ondansetron, 1,2,3 ,9-Tetrahydro-9-methyl-3-[(2-methyl1-H-imidazole-1-yl)methyl]-4H-carbazol-4-one], for which the “Time at which one RGC and vomit occurred after metformin administration” value (Dog A, Test 2, ondansetron 0.15 mg/kg i.v. 15 min before metformin 25 mg/kg) was determined as 179 minutes after metformin. The “Observations (RGCs, vomiting)” value by setting is: (Dog A, Test 3, ondansetron 0.15 mg/kg i.v. 15 min before metformin 25 mg/kg) “no RGCs or vomiting occurred”; (Dog B, Tests 3 and 4, ondansetron 0.15 mg/kg i.v. 15 min before metformin 50 mg/kg) “no RGCs or vomiting occurred”. Further, the “Suppression of the emetic effects of a metformin dosage” value (overall conclusion from the dog tests) is “effective in suppressing the emetic effects”.

Values taken from patent US6451808B1 (DepoMed, Inc., priority 2000, dated 2002).
